Laboratory results reported in ChEMBL document CHEMBL5042508, “Structures and Biological Activities of Polyacylated ent-Kaurane Diterpenoid Glycosides from the Aerial Parts of Inula hupehensis” (J Nat Prod, 2022).
pIC50: −log10 of the molar value.

How the values were obtained:
[1] = Inhibition of Saccharomyces cerevisiae alpha-glucosidase using pNPG as substrate assessed as release of p-nitrophenol preincubated for 18 mins followed by substrate addition and measured after 30 mins by colorimetric method
[2] = test system: BV-2; assay: Antineuroinflammatory activity against mouse BV-2 cells assessed as inhibition of LPS-induced NO production by Griess assay; assay type: functional, cell-based
[3] = test system: BV-2; assay: Cytotoxicity against mouse BV2 cells assessed as reduction in cell viability by MTT assay; assay type: toxicity, cell-based

pIC50 [1]	pIC50 [2]	SMILES	Activity [3]
3.27	–	C=C1[C@@H]2CC[C@H]3[C@]4(C)C[C@H](O[C@@H]5O[C@H](CO)[C@@H](OC(C)=O)[C@H](O[C@@H]6OC[C@H](OC(C)=O)[C@H](O)[C@H]6O)[C@H]5OC(=O)CC(C)C)C[C@@H](C(=O)O)[C@H]4CC[C@]3(C2)[C@H]1O	–
3.43	–	C=C1[C@@H]2CC[C@H]3[C@]4(C)C[C@H](O[C@@H]5O[C@H](CO)[C@@H](O)[C@H](O[C@@H]6OC[C@H](OC(C)=O)[C@H](O)[C@H]6OC(C)=O)[C@H]5OC(=O)CC(C)C)C[C@@H](C(=O)O)[C@H]4CC[C@]3(C2)[C@H]1O	–
–	4.81	C=C1[C@@H]2CC[C@H]3[C@]4(C)C[C@H](O[C@@H]5O[C@H](COC(C)=O)[C@@H](OC(C)=O)[C@H](O[C@@H]6OC[C@H](O)[C@H](O)[C@H]6O)[C@H]5OC(=O)CC(C)C)C[C@@H](C(=O)O)[C@H]4CC[C@]3(C2)[C@H]1O	Non-Toxic
4.48	–	C=C1[C@@H]2CC[C@H]3[C@]4(C)C[C@H](O[C@@H]5O[C@H](CO)[C@@H](O)[C@H](OC(C)=O)[C@H]5OC(=O)CC(C)C)CC(C(=O)O)(C(=O)O)[C@H]4CC[C@]3(C2)[C@H]1O	–
–	4.50	CNC(=N)NCCC[C@H](N)C(=O)O [TILARGININE]	–
3.41	–	C[C@H]1O[C@H](O[C@H]2[C@H](O)[C@@H](O)[C@@H](O[C@H]3[C@H](O)[C@@H](O)C(O)O[C@@H]3CO)O[C@@H]2CO)[C@H](O)[C@@H](O)[C@@H]1N[C@H]1C=C(CO)[C@@H](O)[C@H](O)[C@H]1O (some centres not stated) [ACARBOSE]	–
